Four compounds from PMC10227015, “From a drug repositioning to a structure-based drug design approach to tackle acute lymphoblastic leukemia” (Nature Communications, 2023) can be followed below.

SMILES strings stand for the structures. Read-outs that look alike come from different tables or passages of the source.

Data set [1] concerns the target T1, dCK-C3S-S74E (Homo sapiens, UniProt P27707, form not given/S74E). Kind of data set: Enzymatic assay (PK/LDH coupled), dC phosphorylation by dCK in the presence of ATP. In kind it is biochemical. To be noted: for IC50: read-out: ENZYMATIC ASSAY IC50, presence of ATP. On the procedure:
(§1) For enzymatic assays, cells were re-suspended in 20 mM TRIS, pH 8 500 mM NaCl, 0.1% BRIJ-35 and 5% glycerol buffer and one EDTA free anti-protease tablet was added (Roche). After sonication and centrifugation (30,000 × g), the supernatant was loaded on a 5 ml HisTrap FF column (GE healthcare) pre-equilibrated with 20 mM TRIS, pH 8, 500 mM NaCl, 0.01% BRIJ-35 and 5% glycerol buffer. The protein was then eluted by the same buffer containing 250 mM imidazole after a wash containing 25 mM imidazole. The eluted fraction was applied on a HiPrep 26/10 desalting column (GE healthcare) pre-equilibrated with 20 mM TRIS, pH 8, 500 mM NaCl, 5% glycerol and 0.01% BRIJ-35 buffer. Finally, protein in a 20% glycerol buffer was flash frozen in liquid nitrogen and stored at −80 °C.
(§2) Kinetic analyses were performed using a spectrophotometric continuous enzymatic-coupled assay using pyruvate kinase (PK) and lactate dehydrogenase (LDH). Analysis of the effect of compounds on dCK-C3S-S74E activity was performed using dC as substrate and UTP/ATP as phosphate donors. UTP is the physiological dCK-phosphate donor[46] and it was used to determine activation versus inhibition behavior. ATP was used to calculate IC50 values, as it allows the analysis of a dose response curve. The PK/LDH coupled assay is based on the conversion of phosphoenolpyruvate (PEP) and UDP/ADP to pyruvate and UTP/ATP by PK and the subsequent conversion of pyruvate to lactate by LDH. The latter step requires NADH, which is oxidized to NAD^+. NADH is fluorescent (excitation at 337 nm and emission at 460 nm), but not NAD^+. Thus, the measurement of fluorescent decrease at 460 nm is a measure of kinase activity. dCK experiments were performed in a buffer containing 50 mM HEPES, pH 7.5, 5 mM MgCl2, 1 mM DTT, and 100 mM KCl. Buffer was supplemented with PK (0.01 U/µl), LDH (0.02 U/µl), PEP (1 mM), NADH (300 µM) and compounds at varying concentrations. For UTP assays, protein concentration was 2 μM, substrate 200 µM (dC), and UTP 1 mM. For ATP assays, protein concentration was 100 nM (and 50 nM when indicated), substrate 100 µM (dC), and ATP 1 mM. All measurements were performed on a microplate reader Pherastar FS (BMG Labtech). All assays were performed in triplicate and each experiment was performed at least twice. The data are presented as mean ± SD. The results were plotted as kinetics and the velocity was determined for each condition as the slope of the linear range of the curve. For each compound concentration, the velocity of the reaction (according to V = d[P]/dt) was normalized with respect to the drug free control and velocity ratios were compared. IC50 values corresponding to enzymatic inhibition in ATP were calculated by nonlinear regression curves using GraphPad Prism software 9.4.0.

A further data set concerns CCRF-CEM cell line. Kind of data set: dCK cellular assay: CCRF-CEM proliferation in the presence of dT and dC. Type of data set: cell-based, human. To be noted: Homo sapiens. The essentials:
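Two conditions in T-ALL CCRF-CEM cells: compound only, and compound with thymidine blocking de novo synthesis and deoxycytidine rescuing via dCK. Metabolic dye fluorescence (560/590 nm) gives % proliferation vs DMSO; IC50s, mean ± SD of at least three triplicate runs.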

For data set [2], the target named is T1, dCK-C3S-S74E. The experiment in a line: Enzymatic assay (PK/LDH coupled), dC phosphorylation by dCK in the presence of UTP. Type of data set: biochemical. To be noted: presence of UTP. The procedure: as §1
as §2, with “Analysis of the effect of compounds on dCK-C3S-S74E activity was performed using dC as substrate and UTP/ATP as phosphate donors.” left out

Data set [3] is described as follows: Acute in vivo toxicity, unique IP injection. To be noted: male, mouse, in vivo; Swiss mice, IP, unique injection; read-out: Maximum tolerated dose. On the procedure: (§3) To evaluate the in vivo toxicity selected compounds were injected by intraperitoneal (IP) route to 7 weeks-old male Swiss mice (n = 2) at 10, 20, 40, 50, or 80 mg/kg by unique injection. […] Compounds were administered in their hydrochloride salt forms. Mice were then observed closely for the next one hour, then every hour for 8 h. Observations were continued for 72 h for signs of pain or toxicity such as change in the behavior and in the activity in the cage (decreased locomotion) or change in the appearance (curved back, eyes half-closed, bristle hair, hips hollowed out). In vivo toxicity of compound OR0642 at 40 and 80 mg/kg was also assessed in the NOD-SCID-IL2Rγc null (NSG) mice model for 2 weeks in the presence and absence of dT to confirm the safety of the compound. […]. Blood samples were collected and spun at 10,000 × g prior to collecting the plasma supernatants. All plasma samples were frozen at −80 °C before sample processing. 13 μl of each plasma sample was mixed with 33 μl of acetonitrile to precipitate proteins and extract the compound. Samples were vortexed for 5 min and then placed in an ultrasonic bath for 1 min. The precipitated proteins were sedimented by centrifugation (15,000 × g, 5 min, 16 °C). Supernatants were transferred to a microplate to be analyzed by LC–MS/MS. All samples were analyzed with a UHPLC coupled to a Shimadzu LC-MS 8030 triple quadrupole. The solutions of a standard range, prepared with plasma from untreated mice, were analyzed in the same series of injections.

Data set [4] has as its target T1, dCK-C3S-S74E. Kind of data set: Thermal shift assay (TSA). To be noted: for ΔTm (º) (TSA): Figure 2a, mean; for Thermal Shift Assay Mean (ΔTm (º)): Figure 2b.
Data set [5] is described as follows: Plasma pharmacokinetics after IP administration. Type of data set: in vivo. Particulars: male, Swiss, mouse, mice; for half-life: read-out: T ½ (converted). The procedure:
as §3

Data set [6] deals with T1, dCK-C3S-S74E.
Another data set deals with Swiss male mice. The experiment in a line: Acute in vivo toxicity, unique IP injection. To be noted: mice, 80 mg/kg/day. On the procedure: as §3

T1 sequence (P27707 whole entry S74E, form open): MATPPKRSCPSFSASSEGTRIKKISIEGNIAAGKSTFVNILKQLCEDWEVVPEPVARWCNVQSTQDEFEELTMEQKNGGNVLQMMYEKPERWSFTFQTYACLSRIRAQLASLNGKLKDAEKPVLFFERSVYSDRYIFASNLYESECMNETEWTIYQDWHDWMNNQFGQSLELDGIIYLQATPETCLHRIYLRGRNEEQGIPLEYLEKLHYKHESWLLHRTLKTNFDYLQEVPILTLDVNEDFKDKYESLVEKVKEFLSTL

For the compound `CCCN(c1nc(-c2nccc(N)n2)cs1)c1cc(-c2ccc(OCC(=O)N3CCN(C)CC3)cc2)ccc1C` [OR0597], the IC50 (usually the midpoint of a concentration-inhibition curve) on dCK-C3S-S74E [1] ([dCK] = 100 nM) was 349 ± 89 nM; in the data set on CCRF-CEM cell line (read-out: dCK CELLULAR ASSAY IC50 (nM), CCRF-CEM, 200 µM dT and 1 µM dC, read-out: dCK […] ASSAY IC50), 220 ± 127 nM. Also, the “ENZYMATIC ASSAY (Activation/Inhibition)” value at dCK-C3S-S74E [2] is “I”.
Turning to `CCCN(c1nc(-c2nc(N)cc(N)n2)cs1)c1cc(-c2ccc(S(=O)(=O)N3CCN(C)CC3)cc2)ccc1C` [OR0624], the MTD at 72 h in data set [3] came to 20 mg/kg. Besides, the “Enzymatic activity (ATP) Mean (% activity)” value on dCK-C3S-S74E [1] (0.02 µM) came to 91.0%; at dCK-C3S-S74E [1] (0.04 µM), 91.7%; on dCK-C3S-S74E [1] (0.08 µM), 65.2%; on dCK-C3S-S74E [1] (0.16 µM), 32.0%; at dCK-C3S-S74E [1] (0.31 µM) it was 9.2%; at dCK-C3S-S74E [1] (0.63 µM), 3.9%. The figures for the “Enzymatic activity (ATP) Mean (% activity)” value at dCK-C3S-S74E [1] (1.25 µM), on dCK-C3S-S74E [1] (2.5 µM) and at dCK-C3S-S74E [1] (5 µM) were 2.6%, 1.2% and 0.363%, respectively. At dCK-C3S-S74E [1] ([dCK] = 50 nM (footnote A)), the IC50 amounted to 198 ± 131 nM. On dCK-C3S-S74E [4], the “ΔTm (º) (TSA)” value was 19.49 º. The “Thermal Shift Assay Mean (ΔTm (º))” value on dCK-C3S-S74E [4] is 19.5 º. Further, the “THERMAL SHIFT ASSAY +Tm (°)” value on dCK-C3S-S74E [4] (mean ± SD) stood at 19.5 ± 0.8 °. For the same compound, in data set [5] (dose 20 mg/Kg), the Cmax – broadly, the peak of the concentration-time curve – is 3.1 ± 0.6 µM. For the same compound, the time of peak concentration (Tmax) – broadly, the time from dosing to the highest level – in data set [5] (dose 20 mg/Kg) was found to be 1 h. Moreover, the half-life in data set [5] (dose 20 mg/Kg) was 2.22 ± 0.183 h. On dCK-C3S-S74E [2], the “ENZYMATIC ASSAY (Activation/Inhibition)” value is recorded as “I”.
With `CCCN(c1nc(-c2nc(N)cc(N)n2)cs1)c1cc(-c2ccc(OCC(=O)N3CCN(C)CC3)nc2)ccc1C` [OR0630], the half-inhibitory concentration (IC50) with CCRF-CEM cell line (Figure 2a, CCRF-CEM cell line, mean, read-out: IC50 (nM) (Cell Prolif)) came to 245 nM. Further, the “ΔTm (º) (TSA)” value at dCK-C3S-S74E [6] is on record as 17.35 º.
Take `CCCN(c1nc(-c2nc(N)cc(N)n2)cs1)c1cc(-c2ccc(S(=O)(=O)N3CCN(C)CC3)nc2)ccc1C` [OR0634]: the in vivo tolerance entry in the data set on Swiss male mice is on record as “well tolerated”. The MTD at 72 h in data set [3] was > 80 mg/kg. Further, the “Enzymatic activity (ATP) Mean (% activity)” value at dCK-C3S-S74E [1] (0.02 µM) is on record as 89.7%; on dCK-C3S-S74E [1] (0.04 µM) it was 80.2%; at dCK-C3S-S74E [1] (0.08 µM), 45.4%; at dCK-C3S-S74E [1] (0.16 µM) it was 12.5%; on dCK-C3S-S74E [1] (0.31 µM) it was 4.0%; on dCK-C3S-S74E [1] (0.63 µM), 2.2%. The “Enzymatic activity (ATP) Mean (% activity)” value was found to be 1.9% on dCK-C3S-S74E [1] (1.25 µM), 1.6% on dCK-C3S-S74E [1] (2.5 µM) and 1.6% on dCK-C3S-S74E [1] (5 µM). In addition, at dCK-C3S-S74E [1] ([dCK] = 50 nM (footnote A)), the IC50 amounted to 100 ± 82 nM. Also, the “ΔTm (º) (TSA)” value on dCK-C3S-S74E [4] was 17.45 º. Moreover, at dCK-C3S-S74E [4], the “Thermal Shift Assay Mean (ΔTm (º))” value is on record as 17.5 º. Also, the Cmax in data set [5] (dose 40 mg/Kg) is 5.5 ± 1.3 µM. Moreover, the Tmax in data set [5] (dose 40 mg/Kg) was 1 h. Further, the half-life in data set [5] (dose 40 mg/Kg) is 2.15 ± 0.283 h. Also, the “ENZYMATIC ASSAY (Activation/Inhibition)” value at dCK-C3S-S74E [2] is reported as “I”.
